Source: patent publication EP4389751A1, “HETEROCYCLIC COMPOUNDS AND USES THEREOF” (Kumquat Biosciences Inc., priority 2021, dated 2024)
pIC50: −log10 of the molar value.

Tests used:
K-Ras G12S = biological target: T1, K-Ras G12S (Homo sapiens, UniProt P01116, G12S); assay: HTRF assay of the K-Ras / SOS1 interaction; format: biochemical; conditions: IC50 (against K-Ras G12D) to IC50 (against K-Ras G12S)
T1 construct: made in house; host or cells: E. coli (e.g., BL21 (DE3))
Procedure, shortened: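 GST-K-Ras G12S with anti-GST-Eu donor and His-hSOS1 with anti-6His-XL665 acceptor in ~5 mM HEPES pH 7.4, ~150 mM NaCl, 1 mM DTT, 0.05% BSA, 0.0025% Igepal. Read after ~10 min or longer; IC50 from 665/620 nm ratio, duplicates at 10 µM down to 0.01 µM.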

GP2D cells = assay: Cell proliferation assay (CellTiter-Glo), K-Ras G12D cells; format: cell-based; conditions: GP2D cells (K-Ras G12D); read-out: Inhibition of GP2D Cells (IC50)
Procedure, shortened: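 GP2D (K-Ras G12D) cells seeded in DMEM with 2 mM glutamine and 10% FBS, then dosed next day with a dilution series (e.g., 9-point 3-fold). Viability read by CellTiter-Glo luminescence after about 5 days. IC50 from four-parameter fit.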

[1] = biological target: T2, KRAS protein (His-tagged GDP-loaded G12S 1-169) (Homo sapiens, UniProt P01116, G12S); assay: Covalent modification of KRAS protein, intact-protein LC-MS; format: binding; conditions: 24hrs at room temperature, KRAS protein ~2 µM
T2 construct: His-tagged GDP-loaded G12S 1-169
Protocol: Test compounds are prepared as 10 mM stock solutions in DMSO (Fisher cat#BP231-100). KRAS protein (His-tagged GDP-loaded wildtype 1-169, His-tagged GDP-loaded G12S 1-169 or His-tagged GDP-loaded G12D 1-169) is diluted to ~2 µM in appropriate buffer (e.g., a Hepes buffer at physiological conditions). For testing KRAS modification, compounds are diluted to 50X final test concentration in DMSO in 96-well storage plates. 2 µl of the diluted 50X compounds are added to appropriate wells in the PCR plate (Fisher cat#AB-0800). […] of the stock protein solution is added to each well of the 96-well PCR plate. Reactions are mixed carefully. The plate is sealed well with aluminum plate seal, and stored in drawer at room temperature for 24hrs. 5 µl of 2% formic acid (Fisher cat#A1 17-50) in MilliQ H2O is then added to each well followed by mixing with a pipette. The plate is then resealed with aluminum seal and stored until mass spectrometry analysis.
The extent of covalent modification of KRAS proteins was determined by liquid chromatography electrospray mass spectrometry analysis of the intact proteins on a Thermo Q-Exactive Plus mass spectrometer. 20 µl of sample was injected onto a bioZen 3.6 µm Intact C4 column (Phenomenex cat#00B-4767-AN) placed in a column oven set to 40°C and separated using a suitable LC gradient from -20% to ~60% solvent B. Solvent A was 0.1% formic acid and solvent B was 0.1% formic acid in acetonitrile. HESI source settings were set to 40, 5 and 1 for the sheath, auxiliary and sweep gas flow, respectively. The spray voltage was 4 kV, and the capillary temperature was 320°C. S-lens RF level was 50 and auxiliary gas heater temperature was set to 200°C. The mass spectrometry was acquired using a scan range from 650 to 1750 m/z using positive polarity at a mass resolution of 70,000, AGC target of 1e6 ions and maximum injection time of 250ms. The recorded protein mass spectrum was deconvoluted from the raw data file using Protein Deconvolution v4.0 (Thermo). The protein mass and adduct masses were exported with their peak intensities. The peak intensities for the unmodified and modified protein were used to calculate the percent covalent modification of the KRAS protein based on the following equation: %KRAS protein modification = ((KRAS-compound) / (KRAS) + (KRAS-Compound)) *100.

Row | SMILES | Ratio of IC50 KRAS G12D vs. IC50 KRAS G12S (K-Ras G12S) | pIC50 (GP2D cells) | % G12S Modification at 24 hr. [1]
1 | Nc1nc2c(-c3c(Cl)cc4c(N5CCCC6(CCN(C(=O)n7cncn7)C6)C5)nc(OC[C@@]56CCCN5C[C@H](F)C6)nc4c3F)ccc(F)c2s1 (stereo partly drawn) [Compound A104, (7-(7-(2-amino-7-fluorobenzo[d]thiazol-4-yl)-6-chloro-8-fluoro-2-(((2R,7aS)-2-fluorotetrahydro-1H-pyrrolizin-7a(5H)-yl)methoxy)quinazolin-4-yl)-2,7-diazaspiro[4.5]decan-2-yl)(1H-1,2,4-triazol-1-yl)methanone] | A (A: indicates that the ratio of IC50 against KrasG12D vs. IC50 against KrasG12S is 1-fold or greater) | 5.00 to 6.00 | ++ (++ indicates between about 1%- 20% labelling)
2 | C#Cc1c(F)ccc2cccc(-c3ccc4c(N5CCN(C(=O)n6cncn6)CC(F)(F)C5)nc(OC[C@@]56CCCN5C[C@H](F)C6)nc4c3F)c12 [Compound A107, (4-(7-(8-ethynyl-7-fluoronaphthalen-1-yl)-8-fluoro-2-(((2R,7aS)-2-fluorotetrahydro-1H-pyrrolizin-7 a(5H)-yl)methoxy)quinazolin-4-yl)-6,6-difluoro-1 ,4-diazepan-1-yl)(1H-1,2,4-triazol-1-yl)methanone] | A (A: indicates that the ratio of IC50 against KrasG12D vs. IC50 against KrasG12S is 1-fold or greater) | 5.00 to 6.00 | ++ (++ indicates between about 1%- 20% labelling)
3 | N#Cc1cnn(C(=O)N2CCN(c3nc(OC[C@@]45CCCN4C[C@H](F)C5)nc4c(F)c(-c5ccc(F)c6sc(N)nc56)c(Cl)cc34)CC(F)(F)C2)c1 [Compound A126, 1-(4-(7-(2-amino-7-fluorobenzo[d]thiazol-4-yl)-6-chloro-8-fluoro-2-(((2R,7aS)-2-fluorotetrahydro-1H-pyrrolizin-7a(5H)-yl)methoxy)quinazolin-4-yl)-6,6-difluoro-1,4-diazepane-1-carbonyl)-1Hpyrazole-4-carbonitrile] | A (A: indicates that the ratio of IC50 against KrasG12D vs. IC50 against KrasG12S is 1-fold or greater) | 5.00 to 6.00 | +++ (+++ indicates greater than 20% labelling)
4 | Nc1nc2c(-c3c(Cl)cc4c(N5CC6CN(C(=O)n7cncn7)CC6C5)nc(OC[C@@]56CCCN5C[C@H](F)C6)nc4c3F)ccc(F)c2s1 (stereo partly drawn) [Compound A127, (5-(7-(2-amino-7-fluorobenzo[d]thiazol-4-yl)-6-chloro-8-fluoro-2-(((2R,7aS)-2-fluorotetrahydro-1H-pyrrolizin-7a(5H)-yl)methoxy)quinazolin-4-yl)hexahydropyrrolo[3,4-c]pyrrol-2(1H)-yl)(1H-1,2,4-triazol-1-yl)methanone] | A (A: indicates that the ratio of IC50 against KrasG12D vs. IC50 against KrasG12S is 1-fold or greater) | 5.00 to 6.00 | ++ (++ indicates between about 1%- 20% labelling)
5 | N#Cc1c(N)sc2c(F)ccc(-c3c(Cl)cc4c(N5CCOC6(CN(C(=O)n7cncn7)C6)C5)nc(OC[C@@]56CCCN5C[C@H](F)C6)nc4c3F)c12 [Compound A132, 4-(4-(2-(1H-1,2,4-triazole-1-carbonyl)-5-oxa-2,8-diazaspiro[3.5]nonan-8-yl)-6-chloro-8-fluoro-2-(((2R,7aS)-2-fluorotetrahydro-1H-pyrrolizin-7a(5H)-yl)methoxy)quinazolin-7-yl)-2-amino-7-fluorobenzo[b]thiophene-3-carbonitrile] | A (A: indicates that the ratio of IC50 against KrasG12D vs. IC50 against KrasG12S is 1-fold or greater) | 5.00 to 6.00 | +++ (+++ indicates greater than 20% labelling)
6 | N#Cc1c(N)sc2c(F)ccc(-c3c(Cl)cc4c(N5CC6(CN(C(=O)n7cncn7)CCO6)C5)nc(OC[C@@]56CCCN5C[C@H](F)C6)nc4c3F)c12 [Compound A140, 4-(4-(8-(1H-1,2,4-triazole-1-carbonyl)-5-oxa-2,8-diazaspiro[3.5]nonan-2-yl)-6-chloro-8-fluoro-2-(((2R,7aS)-2-fluorotetrahydro-1H-pyrrolizin-7a(5H)-yl)methoxy)quinazolin-7-yl)-2-amino-7-fluorobenzo[b]thiophene-3-carbonitrile] | A (A: indicates that the ratio of IC50 against KrasG12D vs. IC50 against KrasG12S is 1-fold or greater) | 5.00 to 6.00 | +++ (+++ indicates greater than 20% labelling)
7 | N#CC[C@H]1CN(c2nc(OC[C@@]34CCCN3C[C@H](F)C4)nc3c(F)c(-c4ccc(F)c5sc(N)nc45)c(Cl)cc23)CCN1C(=O)n1cncn1 [Compound A145, 2-((2S)-4-(7-(2-amino-7-fluorobenzo[d]thiazol-4-yl)-6-chloro-8-fluoro-2-(((2R,7aS)-2-fluorotetrahydro-1H-pyrrolizin-7a(5H)-yl)methoxy)quinazolin-4-yl)-1-(1H-1,2,4-triazole-1-carbonyl)piperazin-2-yl)acetonitrile] | A (A: indicates that the ratio of IC50 against KrasG12D vs. IC50 against KrasG12S is 1-fold or greater) | 5.00 to 6.00 | +++ (+++ indicates greater than 20% labelling)
8 | Nc1nc2c(-c3c(Cl)cc4c(N5CCCCC6(CN(C(=O)n7cncn7)C6)C5)nc(OC[C@@]56CCCN5C[C@H](F)C6)nc4c3F)ccc(F)c2s1 [Compound A265, (6-(7-(2-amino-7-fluorobenzo[d]thiazol-4-yl)-6-chloro-8-fluoro-2-(((2R,7aS)-2-fluorotetrahydro-1H-pyrrolizin-7a(5H)-yl)methoxy)quinazolm-4-yl)-2,6-diazaspiro[3.6]decan-2-yl)(1H-1,2,4-triazol-1-yl)methanone] | – | ≥ 6.00 | +++ (+++ indicates greater than 20% labelling)
9 | N#Cc1nccn1C(=O)N1CCN(c2nc(OC[C@@]34CCCN3C[C@H](F)C4)nc3c(F)c(-c4ccc(F)c5sc(N)nc45)c(Cl)cc23)CC1 [Compound A272, 1-(4-(7-(2-amino-7-fluorobenzo[d]thiazol-4-yl)-6-chloro-8-fluoro-2-(((2R,7aS)-2-fluorotetrahydro-1H-pyrrolizin-7a(5H)-yl)methoxy)quinazolin-4-yl)piperazine-1-carbonyl)-1H-imidazole-2-carbonitrile] | – | 5.00 to 6.00 | +++ (+++ indicates greater than 20% labelling)
10 | N#Cc1cccn1C(=O)N1CCN(c2nc(OC[C@@]34CCCN3C[C@H](F)C4)nc3c(F)c(-c4ccc(F)c5sc(N)nc45)c(Cl)cc23)CC1 [Compound A287, 1-(4-(7-(2-amino-7-fluorobenzo[d]thiazol-4-yl)-6-chloro-8-fluoro-2-(((2R,7aS)-2-fluorotetrahydro-1H-pyrrolizin-7a(5H)-yl)methoxy)quinazolin-4-yl)piperazine-1-carbonyl)-1H-pyrrole-2-carbonitrile] | – | 5.00 to 6.00 | ++ (++ indicates between about 1%- 20% labelling)
